Experimental data: patent publication US5948749A, “Pharmaceutical preparations for intranasal administration” (Fuji Yakuhin Company, Limited, priority 1996, dated 1999)

System: ophthalmic mucous membrane
Conditions: rabbit, in vivo
Procedure: The testing method of the present test was based on the guidelines given by OECD. That means, 3 rabbits were used in this study, and a test drug was administered once into one eye of a rabbit in the conjunctival sac, and the other eye was used as control. […] Eyes were washed using lukewarm water of about 35° C. at the observation 24 hours after the administration. Scores of the conjunctival reaction obtained by administration of each test drug were calculated according to the assessment criteria of Draize method. The maximum of total score at each observation time was obtained for each test drug and for each test animal, and the average was calculated, then irritation evaluation in 8 stages (FIG. 9) was carried out according to the Kay and Calandra ophthalmic mucous membrane irritation classification method.

Substance: sodium polystyrene sulphonate
- Kay and Calandra ophthalmic mucous membrane irritation classification (8 levels): Moderately irritating
- average value (score) of the maximum Draize score: 29.0
